Patent US8987250B2 (Gilead Sciences, Inc., priority 2012, dated 2015)

Tested on: HIV-IIIb
Experiment: Test A: Antiviral Assay in MT4 Cells
Type: cell-based
Settings: Human immunodeficiency virus 1, IIIB, MT4, 120 h, Table 2; MT-4 cells infected with HIV-IIIb, 5 days of incubation, CellTiter-Glo; read-out: EC50
Summary of the method: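 Read-out: CellTiter-Glo chemiluminescence after 5-day incubation at 37 °C. Compounds tested as 3-fold serial dilutions (10 concentrations, quadruplicate) in RPMI 1640 with 10% FBS, on MT-4 cells pre-infected at 37 °C with HIV-IIIb at 0.004 m.o.i.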

Row | SMILES | EC50
1 | Cc1cc2nc(-c3ccnc(-c4cnc5c(c4)OCCN5C)c3)sc2c(-c2ccc(Cl)cc2)c1[C@H](OC(C)(C)C)C(=O)O [Compound 396] | 10 nM
2 | Cc1cc2nc(-c3ccnc(-c4ccc5c(c4)N(C)CC5)c3)sc2c(-c2ccc(Cl)cc2)c1[C@H](OC(C)(C)C)C(=O)O [Compound 399] | 43 nM
3 | Cc1cc2nc(-c3ccnc(-c4ccc5c(c4)OCCN5C)c3)sc2c(-c2ccc(Cl)cc2)c1[C@H](OC(C)(C)C)C(=O)O [Compound 400] | 16 nM
4 | Cc1cc2nc(-c3ccnc(-c4ccc5c(c4)C(=O)N(C)CCO5)c3)sc2c(-c2ccc(Cl)cc2)c1[C@H](OC(C)(C)C)C(=O)O [Compound 401] | 23 nM
5 | COc1ncc(-c2cc(-c3nc4cc(C)c([C@H](OC(C)(C)C)C(=O)O)c(-c5ccc(Cl)cc5)c4s3)ccn2)cn1 [Compound 402] | 35 nM
6 | CCOc1ncc(-c2cc(-c3nc4cc(C)c([C@H](OC(C)(C)C)C(=O)O)c(-c5ccc(Cl)cc5)c4s3)ccn2)cn1 [Compound 403] | 42 nM
7 | Cc1cc2nc(-c3ccnc(-c4ccc5c(c4)N(C)CCO5)c3)sc2c(-c2ccc(Cl)cc2)c1[C@H](OC(C)(C)C)C(=O)O [Compound 404] | 41 nM
8 | Cc1cc2nc(-c3ccnc(-c4cnc5ncn(C)c5c4)c3)sc2c(-c2ccc(Cl)cc2)c1[C@H](OC(C)(C)C)C(=O)O [Compound 406] | 149 nM
9 | Cc1cc2nc(-c3ccnc(-c4ccc5c(c4)nnn5C)c3)sc2c(-c2ccc(Cl)cc2)c1[C@H](OC(C)(C)C)C(=O)O [Compound 407] | 14 nM
10 | Cc1cc2nc(-c3ccc4c(c3)nc(C)n4C3CC3)sc2c(-c2ccc(Cl)cc2)c1[C@H](OC(C)(C)C)C(=O)O [Compound 409] | 10 nM
11 | Cc1cc2nc(-c3ccc4c(c3)nc(C)n4C(C)C)sc2c(-c2ccc(Cl)cc2)c1[C@H](OC(C)(C)C)C(=O)O [Compound 410] | 9 nM
12 | Cc1cc2nc(-c3ccc4c(c3)nc(C(C)C)n4C)sc2c(-c2ccc(Cl)cc2)c1[C@H](OC(C)(C)C)C(=O)O [Compound 411] | 8 nM
13 | Cc1cc2nc(-c3ccc4nc(C)n(C5CCOCC5)c4c3)sc2c(-c2ccc(Cl)cc2)c1[C@H](OC(C)(C)C)C(=O)O [Compound 412] | 16 nM
14 | Cc1cc2nc(-c3ccc4ncn(C5CCN(C)CC5)c4c3)sc2c(-c2ccc(Cl)cc2)c1[C@H](OC(C)(C)C)C(=O)O [Compound 414] | 32 nM
15 | Cc1cc2nc(-c3ccc4c(c3)ncn4C)sc2c(-c2ccc(Cl)cc2)c1[C@H](OC(C)(C)C)C(=O)O [Compound 415] | 10 nM
16 | Cc1cc2c(cnn2C)cc1-c1cc(-c2nc3cc(C)c([C@H](OC(C)(C)C)C(=O)O)c(-c4ccc(Cl)cc4)c3s2)ccn1 [Compound 419] | 13 nM
17 | Cc1cc2nc(-c3ccc4cnccc4c3)sc2c(-c2ccc(Cl)cc2)c1[C@H](OC(C)(C)C)C(=O)O [Compound 427] | 14 nM
18 | Cc1cc2nc(-c3ccc4c(c3)c(-c3cnccn3)nn4C)sc2c(-c2ccc(Cl)cc2)c1[C@H](OC(C)(C)C)C(=O)O [Compound 428] | 7 nM
19 | Cc1cc2nc(-c3ccc4scnc4c3)sc2c(-c2ccc(Cl)cc2)c1[C@H](OC(C)(C)C)C(=O)O [Compound 429] | 43 nM
20 | Cc1cc2nc(N3Cc4cccnc4C3)sc2c(-c2ccc(Cl)cc2)c1[C@H](OC(C)(C)C)C(=O)O [Compound 431] | 18 nM

Row | SMILES | EC50
21 | Cc1cc2nc(N3Cc4ccncc4C3)sc2c(-c2ccc(Cl)cc2)c1[C@H](OC(C)(C)C)C(=O)O [Compound 432] | 18 nM
22 | Cc1cc2nc(N3CCc4ccncc4C3)sc2c(-c2ccc(Cl)cc2)c1[C@H](OC(C)(C)C)C(=O)O [Compound 434] | 42 nM
23 | Cc1cc2nc(N3CCc4cnccc4C3)sc2c(-c2ccc(Cl)cc2)c1[C@H](OC(C)(C)C)C(=O)O [Compound 435] | 39 nM
24 | Cc1cc2nc(N3CC[C@@H]4CCCC[C@@H]4C3)sc2c(-c2ccc(Cl)cc2)c1[C@H](OC(C)(C)C)C(=O)O [Compound 437] | 309 nM
25 | Cc1cc2nc(N3CC[C@H]4CCCC[C@@H]4C3)sc2c(-c2ccc(Cl)cc2)c1[C@H](OC(C)(C)C)C(=O)O [Compound 438] | 258 nM
26 | Cc1cc2nc(N3Cc4ccccc4C3)sc2c(-c2ccc(Cl)cc2)c1[C@H](OC(C)(C)C)C(=O)O [Compound 439] | 20 nM
27 | Cc1cc2nc(N3CCc4c(c(C)nn4C)C3)sc2c(-c2ccc(Cl)cc2)c1[C@H](OC(C)(C)C)C(=O)O [Compound 441] | 4 nM
28 | Cc1cc2nc(N3CCn4c(C)nnc4C3)sc2c(-c2ccc(Cl)cc2)c1[C@H](OC(C)(C)C)C(=O)O [Compound 442] | 1160 nM
29 | Cc1cc2nc(-c3ccnc(-c4ccc5c(c4)c(C)nn5C)c3)sc2c(-c2ccc(Cl)cc2)c1[C@H](OC(C)(C)C)C(=O)O [Compound 443] | 24 nM
30 | CNc1nn(C)c2cc(-c3nc4cc(C)c([C@H](OC(C)(C)C)C(=O)O)c(-c5ccc(Cl)cc5)c4s3)ccc12 [Compound 445] | 5 nM
31 | Cc1cc2nc(-c3ccnc(-n4ccc5ncccc5c4=O)c3)sc2c(-c2ccc(Cl)cc2)c1[C@H](OC(C)(C)C)C(=O)O [Compound 447] | 5 nM
32 | Cc1cc2nc(-c3ccnc(-c4ccc5ccn(C)c(=O)c5c4)c3)sc2c(-c2ccc(Cl)cc2)c1[C@H](OC(C)(C)C)C(=O)O [Compound 448] | 9 nM
33 | Cc1cc2nc(-c3ccnc(-c4ccc5cc[nH]c(=O)c5c4)c3)sc2c(-c2ccc(Cl)cc2)c1[C@H](OC(C)(C)C)C(=O)O [Compound 449] | 30 nM
34 | Cc1cc2nc(-n3ccc4cnccc4c3=O)sc2c(-c2ccc(Cl)cc2)c1[C@H](OC(C)(C)C)C(=O)O [Compound 450] | 25 nM
35 | COc1ccc2ccc(-c3cc(-c4nc5cc(C)c([C@H](OC(C)(C)C)C(=O)O)c(-c6ccc(Cl)cc6)c5s4)ccn3)cc2n1 [Compound 451] | 86 nM
36 | Cc1cc2nc(-c3ccnc(-c4ccc5ccc(=O)n(C)c5c4)c3)sc2c(-c2ccc(Cl)cc2)c1[C@H](OC(C)(C)C)C(=O)O [Compound 452] | 16 nM
37 | Cc1cc2nc(-c3ccnc(-c4ccc5ccc(=O)[nH]c5c4)c3)sc2c(-c2ccc(Cl)cc2)c1[C@H](OC(C)(C)C)C(=O)O [Compound 453] | 36 nM
38 | Cc1cc2nc(-c3ccnc(-c4cnc5c(c4)n(C)c(=O)n5C)c3)sc2c(-c2ccc(Cl)cc2)c1[C@H](OC(C)(C)C)C(=O)O [Compound 454] | 18 nM
39 | Cc1cc2nc(-c3ccnc(N4CC5CCCCN5C4=O)c3)sc2c(-c2ccc(Cl)cc2)c1[C@H](OC(C)(C)C)C(=O)O (stereo partly drawn) [Compound 456] | 20 nM
40 | COc1ccc2cc(-c3cc(-c4nc5cc(C)c([C@H](OC(C)(C)C)C(=O)O)c(-c6ccc(Cl)cc6)c5s4)ccn3)ccc2n1 [Compound 457] | 96 nM

Further molecules by falling EC50, results first:

Row | EC50 | SMILES
41 | 173 nM | Cc1cc2nc(-c3ccc4c(c3)OCCO4)sc2c(-c2ccc(Cl)cc2)c1[C@H](OC(C)(C)C)C(=O)O [Compound 446]
42 | 67 nM | Cc1cc2nc(N3Cc4ccccc4C(F)(F)C3)sc2c(-c2ccc(Cl)cc2)c1[C@H](OC(C)(C)C)C(=O)O [Compound 436]
43 | 61 nM | Cc1cc2nc(-c3cccc(-c4ccc5c(n4)N(C)CCO5)c3)sc2c(-c2ccc(Cl)cc2)c1[C@H](OC(C)(C)C)C(=O)O [Compound 395]
44 | 38 nM | Cc1cc2nc(N3CCc4cccnc4C3)sc2c(-c2ccc(Cl)cc2)c1[C@H](OC(C)(C)C)C(=O)O [Compound 433]
45 | 37 nM | Cc1cc2nc(-c3ccnc(-c4cnc5c(c4)ncn5C)c3)sc2c(-c2ccc(Cl)cc2)c1[C@H](OC(C)(C)C)C(=O)O [Compound 405]
46 | 36 nM | Cc1cc2nc(-c3ccnc(-c4cccc5c4CCN5C)c3)sc2c(-c2ccc(Cl)cc2)c1[C@H](OC(C)(C)C)C(=O)O [Compound 398]
47 | 33 nM | Cc1cc2nc(-c3ccc4nc(C)n(C5CCN(C)CC5)c4c3)sc2c(-c2ccc(Cl)cc2)c1[C@H](OC(C)(C)C)C(=O)O [Compound 413]
48 | 32 nM | Cc1cc2nc(-c3ccnc(-c4ccc5c(c4)CCN5C)c3)sc2c(-c2ccc(Cl)cc2)c1[C@H](OC(C)(C)C)C(=O)O [Compound 397]
49 | 32 nM | Cc1cc2nc(-c3ccnc(-c4cc(C)c5[nH]ncc5c4)c3)sc2c(-c2ccc(Cl)cc2)c1[C@H](OC(C)(C)C)C(=O)O [Compound 422]
50 | 29 nM | Cc1cc2nc(-c3ccc4cnn(C)c4c3)sc2c(-c2ccc(Cl)cc2)c1[C@H](OC(C)(C)C)C(=O)O [Compound 430]
51 | 27 nM | Cc1cc2nc(-c3ccnc(-c4cnn(C(C)(C)C)c4)c3)sc2c(-c2ccc(Cl)cc2)c1[C@H](OC(C)(C)C)C(=O)O [Compound 408]
52 | 25 nM | Cc1cc2nc(-c3ccnc(-c4ccc5c(c4)NC(=O)CO5)c3)sc2c(-c2ccc(Cl)cc2)c1[C@H](OC(C)(C)C)C(=O)O [Compound 394]
53 | 25 nM | Cc1cc2nn(C)cc2cc1-c1cc(-c2nc3cc(C)c([C@H](OC(C)(C)C)C(=O)O)c(-c4ccc(Cl)cc4)c3s2)ccn1 [Compound 416]
54 | 20 nM | Cc1cc2nc(-c3ccnc(-c4ccc5[nH]ncc5c4C)c3)sc2c(-c2ccc(Cl)cc2)c1[C@H](OC(C)(C)C)C(=O)O [Compound 421]
55 | 18 nM | Cc1cc2nc(-c3ccnc(-c4ccc5c(cnn5C)c4C)c3)sc2c(-c2ccc(Cl)cc2)c1[C@H](OC(C)(C)C)C(=O)O [Compound 417]
56 | 17 nM | Cc1cc2nc(-c3ccc4c(c3)c(=O)n(C)n4C)sc2c(-c2ccc(Cl)cc2)c1[C@H](OC(C)(C)C)C(=O)O [Compound 455]
57 | 14 nM | Cc1cc2[nH]ncc2cc1-c1cc(-c2nc3cc(C)c([C@H](OC(C)(C)C)C(=O)O)c(-c4ccc(Cl)cc4)c3s2)ccn1 [Compound 420]
58 | 11 nM | Cc1cc2nc(-c3ccnc(-c4ccc5nn(C)cc5c4C)c3)sc2c(-c2ccc(Cl)cc2)c1[C@H](OC(C)(C)C)C(=O)O [Compound 418]
59 | 11 nM | Cc1cc2nc(N3CCc4nn(C)c(C)c4C3)sc2c(-c2ccc(Cl)cc2)c1[C@H](OC(C)(C)C)C(=O)O [Compound 440]
60 | 10 nM | CNc1nn(C)c2ccc(-c3nc4cc(C)c([C@H](OC(C)(C)C)C(=O)O)c(-c5ccc(Cl)cc5)c4s3)cc12 [Compound 444]
